Results as given in patent publication US20140179664A1, “Heterocyclyl Pyrimidine Analogues As JAK Inhibitors” (Cellzome Limited, priority 2011, published 2014).

Legend:
Format in all cases: binding
TYK2 = molecular target: T1, TYK2 (Homo sapiens, UniProt P29597); assay: Kinobeads assay, TYK2; settings: mixed Molt4/Ramos lysate, read-out: Inhibition values (IC50) TYK2
T1 construct: endogenous in cells; host or cells: Molt4 (ATCC CRL-1582) and Ramos (ATCC CRL-1596), mixed lysate 1:2
Method: (§1) The compounds of the present invention as described in the previous examples were tested in a Kinobeads™ assay as described for ZAP-70 (WO-A 2007/137867). Briefly, test compounds (at various concentrations) and the affinity matrix with the immobilized aminopyrido-pyrimidine ligand 24 were added to cell lysate aliquots and allowed to bind to the proteins in the lysate sample. After the incubation time the beads with captured proteins were separated from the lysate. Bound proteins were then eluted and the presence of JAK1, JAK2, JAK3 and TYK2 was detected and quantified using specific antibodies in a dot blot procedure and the Odyssey infrared detection system. Dose response curves for individual kinases were generated and IC50 values calculated. Kinobeads™ assays for ZAP-70 (WO-A 2007/137867) and for kinase selectivity profiling (WO-A 2006/134056) have been previously described.
(§2) The affinity matrix was washed two times with 15 mL of lx DP buffer containing 0.2% NP40 (IGEPAL® CA-630, Sigma, #13021) and then resuspended in 1×DP buffer containing 0.2% NP40 (3% beads slurry).
(§3) 5×DP buffer: 250 mM Tris-HCl pH 7.4, 25% Glycerol, 7.5 mM MgCl2, 750 mM NaCl, 5 mM Na3VO4; filter the 5×DP buffer through a 0.22 μm filter and store in aliquots at −80° C. The 5×DP buffer is diluted with H2O to 1×DP buffer containing 1 mM DTT and 25 mM NaF.
(§4) Stock solutions of test compounds were prepared in DMSO. In a 96 well plate […] solution of diluted test compounds at 5 mM in DMSO were prepared. Starting with this solution a 1:3 dilution series (9 steps) was prepared. For control experiments (no test compound) a buffer containing 2% DMSO was used.
(§5) Molt4 cells (ATCC catalogue number CRL-1582) and Ramos cells (ATCC catalogue number CRL-1596) were grown in 1 L Spinner flasks (Integra Biosciences, #182101) in suspension in RPMI 1640 medium (Invitrogen, #21875-034) supplemented with 10% Fetal Bovine Serum (Invitrogen) at a density between 0.15×10^6 and 1.2×10^6 cells/mL. Cells were harvested by centrifugation, washed once with 1×PBS buffer (Invitrogen, #14190-094) and cell pellets were frozen in liquid nitrogen and subsequently stored at −80° C. Cells were homogenized in a Potter S homogenizer in lysis buffer: 50 mM Tris-HCl, 0.8% NP40, 5% glycerol, 150 mM NaCl, 1.5 mM MgCl2, 25 mM NaF, 1 mM sodium vanadate, 1 mM DTT, pH 7.5. One complete EDTA-free tablet (protease inhibitor cocktail, Roche Diagnostics, 1873580) per 25 mL buffer was added. The material was dounced 10 times using a mechanized POTTER S, transferred to 50 mL falcon tubes, incubated for 30 minutes on ice and spun down for 10 minutes at 20,000 g at 4° C. (10,000 rpm in Sorvall SLA600, precooled). The supernatant was transferred to an ultracentrifuge (UZ)-polycarbonate tube (Beckmann, 355654) and spun for 1 hour at 100.000 g at 4° C. (33.500 rpm in Ti50.2, precooled). The supernatant was transferred again to a fresh 50 mL falcon tube, the protein concentration was determined by a Bradford assay (BioRad) and samples containing 50 mg of protein per aliquot were prepared. The samples were immediately used for experiments or frozen in liquid nitrogen and stored frozen at −80° C.
(§6) Cell lysate (approximately 50 mg protein per plate) was thawed in a water bath at room temperature and then stored on ice. To the thawed cell lysate 1×DP 0.8% NP40 buffer containing protease inhibitors (1 tablet for 25 mL buffer; EDTA-free protease inhibitor cocktail; Roche Diagnostics 1873580) was added in order to reach a final protein concentration of 10 mg/mL total protein. The diluted cell lysate was stored on ice. Mixed Molt4/Ramos lysate was prepared by combining one volume of Molt4 lysate and two volumes of Ramos lysate (ratio 1:2).
(§7) To a 96 well filter plate (Multiscreen HTS, BV Filter Plates, Millipore #MSBVN1250) were added per well: 100 μL affinity matrix (3% beads slurry), […], of compound solution, and 50 μL of diluted lysate. […]

JAK2 = molecular target: T2, JAK2 (Homo sapiens, UniProt O60674); assay: Kinobeads assay, JAK2; settings: mixed Molt4/Ramos lysate, read-out: Inhibition values (IC50) JAK2
T2 construct: endogenous in cells; host or cells: Molt4 (ATCC CRL-1582) and Ramos (ATCC CRL-1596), mixed lysate 1:2
T2 sequence (O60674 whole entry): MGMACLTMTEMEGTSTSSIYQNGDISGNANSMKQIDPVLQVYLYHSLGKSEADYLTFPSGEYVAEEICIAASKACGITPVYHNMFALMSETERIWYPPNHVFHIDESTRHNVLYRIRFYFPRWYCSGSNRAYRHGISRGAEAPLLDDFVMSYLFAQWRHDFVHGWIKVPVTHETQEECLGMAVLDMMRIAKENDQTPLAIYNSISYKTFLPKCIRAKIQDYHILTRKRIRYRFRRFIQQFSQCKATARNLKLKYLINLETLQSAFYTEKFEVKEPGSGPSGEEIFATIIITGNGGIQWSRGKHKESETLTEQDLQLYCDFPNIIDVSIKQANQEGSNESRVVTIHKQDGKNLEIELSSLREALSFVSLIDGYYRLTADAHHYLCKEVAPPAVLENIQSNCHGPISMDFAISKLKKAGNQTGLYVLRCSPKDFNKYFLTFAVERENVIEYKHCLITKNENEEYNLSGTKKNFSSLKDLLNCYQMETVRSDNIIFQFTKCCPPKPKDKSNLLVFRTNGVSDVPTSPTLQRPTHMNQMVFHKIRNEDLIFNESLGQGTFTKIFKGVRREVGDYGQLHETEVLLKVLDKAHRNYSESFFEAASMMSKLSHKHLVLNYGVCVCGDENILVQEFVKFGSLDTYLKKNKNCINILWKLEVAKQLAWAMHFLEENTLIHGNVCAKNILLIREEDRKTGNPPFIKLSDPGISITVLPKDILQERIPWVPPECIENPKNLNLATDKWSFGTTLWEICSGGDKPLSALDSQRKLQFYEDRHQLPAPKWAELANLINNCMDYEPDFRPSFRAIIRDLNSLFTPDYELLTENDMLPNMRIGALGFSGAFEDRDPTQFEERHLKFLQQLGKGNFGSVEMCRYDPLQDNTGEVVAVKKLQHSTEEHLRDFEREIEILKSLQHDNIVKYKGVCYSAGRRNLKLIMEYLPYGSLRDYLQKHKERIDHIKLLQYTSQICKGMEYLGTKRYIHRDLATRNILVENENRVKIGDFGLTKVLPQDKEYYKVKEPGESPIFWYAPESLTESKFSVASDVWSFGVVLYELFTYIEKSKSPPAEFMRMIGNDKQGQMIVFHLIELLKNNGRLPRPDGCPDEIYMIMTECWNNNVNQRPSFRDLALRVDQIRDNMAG
Method: as §1, §2, §3, §4, §5, §6, §7

JAK1 = molecular target: T3, JAK1 (Homo sapiens, UniProt P23458); assay: Kinobeads assay, JAK1; settings: mixed Molt4/Ramos lysate, read-out: Inhibition values (IC50) JAK1
T3 construct: endogenous in cells; host or cells: Molt4 (ATCC CRL-1582) and Ramos (ATCC CRL-1596), mixed lysate 1:2
T3 sequence (P23458 whole entry): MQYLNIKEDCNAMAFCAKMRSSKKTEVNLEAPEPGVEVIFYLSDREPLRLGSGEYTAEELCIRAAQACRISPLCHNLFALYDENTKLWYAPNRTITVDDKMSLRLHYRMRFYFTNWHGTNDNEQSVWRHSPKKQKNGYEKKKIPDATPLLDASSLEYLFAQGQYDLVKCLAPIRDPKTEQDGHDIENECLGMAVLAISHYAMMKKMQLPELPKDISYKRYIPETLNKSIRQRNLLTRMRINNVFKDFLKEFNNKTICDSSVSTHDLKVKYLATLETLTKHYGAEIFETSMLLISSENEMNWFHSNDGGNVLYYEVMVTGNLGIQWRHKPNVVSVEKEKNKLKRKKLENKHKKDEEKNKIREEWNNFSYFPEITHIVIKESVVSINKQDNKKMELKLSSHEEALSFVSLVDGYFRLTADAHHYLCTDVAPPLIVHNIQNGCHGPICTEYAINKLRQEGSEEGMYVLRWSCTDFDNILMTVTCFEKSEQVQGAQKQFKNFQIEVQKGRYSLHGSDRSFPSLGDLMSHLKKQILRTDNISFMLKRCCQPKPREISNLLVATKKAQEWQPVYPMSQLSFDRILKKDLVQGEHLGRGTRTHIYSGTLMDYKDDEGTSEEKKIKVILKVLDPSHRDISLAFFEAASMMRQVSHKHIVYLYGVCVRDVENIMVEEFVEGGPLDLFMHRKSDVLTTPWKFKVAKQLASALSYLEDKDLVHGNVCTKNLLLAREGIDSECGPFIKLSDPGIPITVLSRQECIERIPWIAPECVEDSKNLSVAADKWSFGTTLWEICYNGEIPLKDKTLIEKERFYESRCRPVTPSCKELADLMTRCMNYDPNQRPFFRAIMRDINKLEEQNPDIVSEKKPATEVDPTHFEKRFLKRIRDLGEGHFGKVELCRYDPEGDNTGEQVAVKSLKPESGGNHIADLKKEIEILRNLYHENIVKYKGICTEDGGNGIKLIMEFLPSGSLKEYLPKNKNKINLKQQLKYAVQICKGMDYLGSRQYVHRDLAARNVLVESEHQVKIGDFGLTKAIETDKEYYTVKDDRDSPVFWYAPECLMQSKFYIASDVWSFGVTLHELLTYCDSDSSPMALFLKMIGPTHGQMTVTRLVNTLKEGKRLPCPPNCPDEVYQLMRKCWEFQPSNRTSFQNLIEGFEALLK
Method: After the incubation time the beads with captured proteins were separated from the lysate. Bound proteins were then eluted and the presence of JAK1, JAK2, JAK3 and TYK2 was detected and quantified using specific antibodies in a dot blot procedure and the Odyssey infrared detection system. Dose response curves for individual kinases were generated and IC50 values calculated.
as §3
Stock solutions of test compounds were prepared in DMSO. […] Starting with this solution a 1:3 dilution series (9 steps) was prepared. For control experiments (no test compound) a buffer containing 2% DMSO was used.
Cells were homogenized in a Potter S homogenizer in lysis buffer: 50 mM Tris-HCl, 0.8% NP40, 5% glycerol, 150 mM NaCl, 1.5 mM MgCl2, 25 mM NaF, 1 mM sodium vanadate, 1 mM DTT, pH 7.5. […] The material was dounced 10 times using a mechanized POTTER S, transferred to 50 mL falcon tubes, incubated for 30 minutes on ice and spun down for 10 minutes at 20,000 g at 4° C. (10,000 rpm in Sorvall SLA600, precooled). […] (33.500 rpm in Ti50.2, precooled). The supernatant was transferred again to a fresh 50 mL falcon tube, the protein concentration was determined by a Bradford assay (BioRad) and samples containing 50 mg of protein per aliquot were prepared. The samples were immediately used for experiments or frozen in liquid nitrogen and stored frozen at −80° C.
Cell lysate (approximately 50 mg protein per plate) was thawed in a water bath at room temperature and then stored on ice. […] The diluted cell lysate was stored on ice. Mixed Molt4/Ramos lysate was prepared by combining one volume of Molt4 lysate and two volumes of Ramos lysate (ratio 1:2).
Plates were sealed and incubated for 3 hours in a cold room on a plate shaker (Heidolph tiramax 1000) at 750 rpm. Afterwards the plate was washed 3 times with 230 μL washing buffer (1×DP 0.4% NP40). […] The eluate was frozen quickly at −80° C. and stored at −20° C.
Afterwards the membrane was washed twice for 10 minutes with PBS buffer containing 0.2% Tween 20 at room temperature. […] Afterwards the membrane was washed twice for 10 minutes each with 1×PBS buffer containing 0.2% Tween 20 at room temperature. Then the membrane was rinsed once with PBS buffer to remove residual Tween 20. The membrane was kept in PBS buffer at 4° C. and then scanned with the Odyssey instrument. Fluorescence signals were recorded and analysed according to the instructions of the manufacturer.

T1 sequence (P29597 whole entry): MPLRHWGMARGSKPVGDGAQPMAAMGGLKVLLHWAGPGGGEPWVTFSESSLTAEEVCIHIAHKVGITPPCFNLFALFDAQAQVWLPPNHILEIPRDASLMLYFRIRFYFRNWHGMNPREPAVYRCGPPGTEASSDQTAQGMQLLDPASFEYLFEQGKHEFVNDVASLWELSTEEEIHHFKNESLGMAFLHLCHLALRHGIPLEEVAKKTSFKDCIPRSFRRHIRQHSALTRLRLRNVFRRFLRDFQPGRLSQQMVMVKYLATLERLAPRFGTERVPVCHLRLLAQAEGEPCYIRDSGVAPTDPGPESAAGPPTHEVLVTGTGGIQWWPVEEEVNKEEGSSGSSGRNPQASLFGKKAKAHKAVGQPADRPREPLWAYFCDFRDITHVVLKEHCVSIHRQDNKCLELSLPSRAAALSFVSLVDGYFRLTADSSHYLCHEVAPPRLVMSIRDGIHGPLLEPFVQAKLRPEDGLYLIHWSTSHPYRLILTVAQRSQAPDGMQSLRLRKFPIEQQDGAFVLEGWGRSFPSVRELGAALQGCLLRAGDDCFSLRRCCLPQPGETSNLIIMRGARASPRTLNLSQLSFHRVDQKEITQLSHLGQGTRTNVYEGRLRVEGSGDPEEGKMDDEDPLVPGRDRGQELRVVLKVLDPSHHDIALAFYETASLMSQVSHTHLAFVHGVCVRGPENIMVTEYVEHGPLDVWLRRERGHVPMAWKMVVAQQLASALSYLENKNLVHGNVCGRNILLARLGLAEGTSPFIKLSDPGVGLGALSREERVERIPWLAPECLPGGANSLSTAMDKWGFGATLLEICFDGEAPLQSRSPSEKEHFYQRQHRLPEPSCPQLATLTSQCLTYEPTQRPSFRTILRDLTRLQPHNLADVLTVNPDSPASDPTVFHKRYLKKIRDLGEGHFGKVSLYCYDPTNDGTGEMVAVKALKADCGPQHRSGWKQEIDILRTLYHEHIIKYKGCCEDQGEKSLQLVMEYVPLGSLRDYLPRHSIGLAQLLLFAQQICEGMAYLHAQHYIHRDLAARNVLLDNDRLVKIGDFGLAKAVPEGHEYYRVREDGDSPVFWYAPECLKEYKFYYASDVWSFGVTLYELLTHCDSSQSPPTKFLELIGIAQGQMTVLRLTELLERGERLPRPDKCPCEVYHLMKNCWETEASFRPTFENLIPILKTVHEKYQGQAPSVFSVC

| SMILES | IC50 (TYK2) [nM] | IC50 (JAK2) [nM] | IC50 (JAK1) [nM] |
| --- | --- | --- | --- |
| CC[C@@H](Nc1nc(Nc2cnn(C)c2)ncc1Cl)c1ccccc1 [Compound 5] | ≥ 10000 | 1000 to 10000 | 1000 to 10000 |
| Cn1cc(Nc2ncc(Cl)c(NC(CO)c3ccccc3Cl)n2)cn1 (stereo not drawn) [Compound 117] | 1000 to 10000 | 1000 to 10000 | 1000 to 10000 |
| CCn1cc(Nc2ncc(Cl)c(N[C@H](CO)c3cccnc3)n2)cn1 [Compound 97] | 1000 to 10000 | 1000 to 10000 | 1000 to 10000 |
| Cn1cc(Nc2ncc(C(F)(F)F)c(N[C@H](CO)c3ccccc3)n2)cn1 [Compound 6] | ≥ 10000 | ≥ 10000 | > 10000 |
| CNC(=O)Cn1cc(Nc2ncc(F)c(N[C@H](CO)c3cccc(-c4cnn(C)c4)c3)n2)cn1 [Compound 155] | ≥ 10000 | ≥ 10000 | > 10000 |
| Cc1cnc(Nc2cnn(CC(=O)N(C)C)c2)nc1N[C@H](CO)c1ccccc1 [Compound 134] | 1000 to 10000 | 1000 to 10000 | 100 to 1000 |
| CNC(=O)Cn1cc(Nc2ncc(C)c(N[C@H](CO)c3ccccc3)n2)cn1 [Compound 133] | 1000 to 10000 | 1000 to 10000 | 1000 to 10000 |
| CC(C)OCCn1cc(Nc2ncc(Cl)c(N[C@H](CO)c3ccccc3)n2)cn1 [Compound 114] | 1000 to 10000 | 1000 to 10000 | 1000 to 10000 |
| Cn1cc(Nc2ncc(Cl)c(NC(CO)c3cccc(N4CCOCC4=O)c3)n2)cn1 (stereo not drawn) [Compound 124] | 1000 to 10000 | ≥ 10000 | 1000 to 10000 |
| CNC(=O)Cn1cc(Nc2ncc(Cl)c(N[C@H](CO)c3cc(F)cc(-c4cnn(C)c4)c3)n2)cn1 [Compound 156] | ≥ 10000 | 1000 to 10000 | 1000 to 10000 |
| CCC(Nc1nc(Nc2cnn(C)c2)ncc1Cl)c1ccccc1F (stereo not drawn) [Compound 125] | 1000 to 10000 | 1000 to 10000 | 1000 to 10000 |
| Cn1cc(-c2cc(F)cc([C@@H](CO)Nc3nc(Nc4cnn(CCO)c4)ncc3Cl)c2)cn1 [Compound 152] | 1000 to 10000 | 1000 to 10000 | 100 to 1000 |
| Cn1cc(Nc2ncc(Cl)c(N[C@H](CO)c3cccc(N4CCOCC4=O)c3F)n2)cn1 [Compound 162] | ≥ 10000 | ≥ 10000 | 1000 to 10000 |
| CNC(=O)Cn1cc(Nc2ncc(Cl)c(N[C@H](CO)c3ccccc3F)n2)cn1 [Compound 100] | 1000 to 10000 | 1000 to 10000 | 100 to 1000 |
| Cn1cc(-c2cccc([C@@H](CO)Nc3nc(Nc4cnn(CCO)c4)ncc3Cl)c2)cn1 [Compound 151] | ≥ 10000 | ≥ 10000 | 1000 to 10000 |
| Cc1cnc(Nc2cnn(C)c2)nc1N[C@H](CO)c1cc(F)cc(F)c1 [Compound 164] | 1000 to 10000 | 1000 to 10000 | 100 to 1000 |
| CCn1cc(Nc2ncc(Cl)c(N[C@H](CO)c3ccccc3OC)n2)cn1 [Compound 95] | 1000 to 10000 | 100 to 1000 | 100 to 1000 |
| CNC(=O)Cn1cc(Nc2ncc(Cl)c(NC(CO)c3cc(F)cc(F)c3)n2)cn1 (stereo not drawn) [Compound 123] | 1000 to 10000 | 1000 to 10000 | 100 to 1000 |
| Cn1cc(Nc2ncc(C(F)(F)F)c(NC(C)(CO)c3ccccc3)n2)cn1 (stereo not drawn) [Compound 8] | ≥ 10000 | ≥ 10000 | > 10000 |
| OCCn1cc(Nc2ncc(F)c(N[C@H](CO)c3ccccc3)n2)cn1 [Compound 10] | 1000 to 10000 | ≥ 10000 | 1000 to 10000 |
| CNC(=O)Cn1cc(Nc2ncc(Cl)c(N[C@H](CO)c3cc(F)cc(F)c3)n2)cn1 [Compound 145] | 100 to 1000 | 100 to 1000 | < 100 |
| CC(C)NC(=O)Cn1cc(Nc2ncc(Cl)c(N[C@H](CO)c3ccccc3F)n2)cn1 [Compound 115] | 100 to 1000 | 1000 to 10000 | 100 to 1000 |

Other lines, results leading:

| IC50 (TYK2) [nM] | IC50 (JAK2) [nM] | IC50 (JAK1) [nM] | SMILES |
| --- | --- | --- | --- |
| < 100 | 1000 to 10000 | 100 to 1000 | COc1ccccc1[C@@H](CO)Nc1nc(Nc2cnn(CC(=O)N3CCOCC3)c2)ncc1Cl [Compound 101] |
| 100 to 1000 | 1000 to 10000 | 100 to 1000 | CNC(=O)Cn1cc(Nc2ncc(F)c(N[C@H](CO)c3cc(F)ccc3F)n2)cn1 [Compound 148] |
| 100 to 1000 | 1000 to 10000 | 100 to 1000 | CNC(=O)Cn1cc(Nc2ncc(F)c(N[C@H](CO)c3cc(F)cc(F)c3)n2)cn1 [Compound 161] |
| 100 to 1000 | ≥ 10000 | 100 to 1000 | COc1cccc([C@@H](CO)Nc2nc(Nc3cnn(CC(=O)N4CCOCC4)c3)ncc2Cl)c1 [Compound 102] |
| 100 to 1000 | 100 to 1000 | < 100 | CNC(=O)Cn1cc(Nc2ncc(Cl)c(N[C@H](CO)c3cc(F)ccc3F)n2)cn1 [Compound 141] |
| 100 to 1000 | 100 to 1000 | 100 to 1000 | Cn1cc(Nc2ncc(Cl)c(N[C@H](CO)c3cc(F)ccc3F)n2)cn1 [Compound 139] |
| 100 to 1000 | 100 to 1000 | 100 to 1000 | Cc1cnc(Nc2cnn(C)c2)nc1N[C@H](CO)c1cc(F)ccc1F [Compound 163] |
| 100 to 1000 | 1000 to 10000 | 100 to 1000 | O=C(Cn1cc(Nc2ncc(Cl)c(N[C@H](CO)c3ccccc3F)n2)cn1)N1CCOCC1 [Compound 103] |
| 100 to 1000 | 1000 to 10000 | 100 to 1000 | O=C(Cn1cc(Nc2ncc(Cl)c(N[C@H](CO)c3cccnc3)n2)cn1)N1CCOCC1 [Compound 104] |
